A short description of series [1]: Cytotoxicity against CHO cells assessed as reduction in cell viability incubated for 72 hrs by MTT assay. It counts as cell-based, Cricetulus griseus. The following applies: chinese hamster. In general terms: Tetrazolium assays rely on reduction of a dye to a coloured formazan, in cell work by metabolically active cells.
Series [2] can be described thus: Elimination half life in SPF ICR mouse at 25 mg/kg, po administered as single dose measured for 0.25 to 24 hrs. In kind it is ADME, organism-based. The following applies: in vivo, read-out: beta t1/2 (converted).
Series [3] is described as follows: Metabolic stability in SPF ICR mouse liver microsomes assessed as half life […]. It counts as ADME, Microsome. (In general: Liver microsomes are vesicles of endoplasmic reticulum, rich in cytochrome P450 enzymes.)
Series [4] can be described thus: Cmax in SPF ICR mouse at 25 mg/kg, po administered as single dose measured for 0.25 to 24 hrs. The following applies: in vivo. It counts as ADME, organism-based. Also noted: dose 25 mg/kg, route oral.
Series [5] in a line: Tmax in SPF ICR mouse at 25 mg/kg, po administered as single dose measured for 0.25 to 24 hrs. It counts as ADME, organism-based. The following applies: in vivo.
A short description of series [6]: AUC (0 to infinity) in SPF ICR mouse at 25 mg/kg, po administered as single dose measured for 0.25 to 24 hrs. In kind it is ADME, organism-based. Further details: dose 25 mg/kg, time infinity, route oral. The following applies: in vivo.

The results in this text go back to ChEMBL document CHEMBL4311962, “Benzofuran-isatin hybrids and their in vitro anti-mycobacterial activities against multi-drug resistant Mycobacterium tuberculosis” (Eur J Med Chem, 2019).

Some results are limits rather than exact numbers.

For the compound `CCOC(=O)c1c(-c2ccc(F)cc2)oc2ccc(OCCCCCCN3C(=O)/C(=N/OC)c4ccccc43)cc12`, the CC50 at 72 h in series [1] was 128 µM.

As for `CCOC(=O)c1c(-c2ccc(OC)cc2)oc2ccc(OCCCCCN3C(=O)C(=O)c4ccccc43)cc12`, the CC50 at 72 h in series [1] was 128 µM.

As for `CCOC(=O)c1c(-c2ccc(F)cc2)oc2ccc(OCCCCCCN3C(=O)/C(=N\O)c4cc(OC)ccc43)cc12`, the CC50 at 72 h in series [1] was determined as 512 µM.

As for `CCOC(=O)c1c(-c2ccc(OC)cc2)oc2ccc(OCCCCCCN3C(=O)/C(=N/NC(N)=S)c4cc(F)ccc43)cc12`, the half-life is 2.32 h in series [2] and 0.29 h in series [3]. In addition, the Cmax in series [4] came to 2540 ng/mL. Also, in series [5], the Tmax is 1.81 h. In series [6], this compound yielded an AUC(0-inf) of 3800 ng·h/mL. For the same compound, in series [1], the CC50 at 72 h was 128 µM.

Take `CCOC(=O)c1c(-c2ccc(F)cc2)oc2ccc(OCCN3C(=O)C(=O)c4ccccc43)cc12`: the CC50 at 72 h in series [1] was determined as 128 µM.

For `CCOC(=O)c1c(-c2ccc(F)cc2)oc2ccc(OCCCCCCN3C(=O)C(=O)c4cc(OC)ccc43)cc12`, the CC50 at 72 h in series [1] is 256 µM.

For `CCOC(=O)c1c(-c2ccc(OC)cc2)oc2ccc(OCCCN3C(=O)C(=O)c4cc(F)ccc43)cc12`, the CC50 at 72 h in series [1] stood at 64 µM.

On to `CCOC(=O)c1c(-c2ccccc2)oc2ccc(OCCN3C(=O)C(=O)c4cc(F)ccc43)cc12`, for which the CC50 at 72 h in series [1] was found to be 64 µM.

On to `CCO/N=C1\C(=O)N(CCCCCCOc2ccc3oc(-c4ccc(F)cc4)c(C(=O)OCC)c3c2)c2ccc(OC)cc21`, for which the CC50 at 72 h in series [1] was 256 µM.

As to `CCOC(=O)c1c(-c2ccccc2)oc2ccc(OCCCCCCN3C(=O)C(=O)c4ccccc43)cc12`, in series [1], the CC50 at 72 h turned out to be 128 µM.

Take `CCOC(=O)c1c(-c2ccc(F)cc2)oc2ccc(OCCCN3C(=O)/C(=N/O)c4ccccc43)cc12`: the CC50 at 72 h in series [1] amounted to 256 µM.

For `CCOC(=O)c1c(-c2ccccc2)oc2ccc(OCCCN3C(=O)C(=O)c4ccccc43)cc12`, the CC50 at 72 h in series [1] came to 256 µM.

For `CCOC(=O)c1c(-c2ccccc2)oc2ccc(OCCCN3C(=O)/C(=N/O)c4ccccc43)cc12`, the CC50 at 72 h in series [1] was 512 µM.

As to `NNC(=O)c1ccncc1` [ISONIAZID], in series [1], the CC50 at 72 h came out at 256 µM.

Take `CNC(=O)c1c(-c2ccc(O)cc2)oc2ccc(O)c(CN3CCCCC3)c12`: the half-life in series [3] was greater than 1 h. In addition, the CC50 at 72 h in series [1] is greater than 1020 µM.

With `CCOC(=O)c1c(-c2ccccc2)oc2ccc(OCCCN3C(=O)C(=O)c4cc(OC)ccc43)cc12`, the CC50 at 72 h in series [1] amounted to 512 µM.

For the compound `CCOC(=O)c1c(-c2ccccc2)oc2ccc(OCCCN3C(=O)/C(=N/O)c4cc(OC)ccc43)cc12`, the CC50 at 72 h in series [1] is 512 µM.

Take `CCOC(=O)c1c(-c2ccc(F)cc2)oc2ccc(OCCN3C(=O)C(=O)c4cc(F)ccc43)cc12`: the CC50 at 72 h in series [1] was found to be 64 µM.

For the compound `CCOC(=O)c1c(-c2ccc(F)cc2)oc2ccc(OCCCN3C(=O)C(=O)c4ccccc43)cc12`, the CC50 at 72 h in series [1] stood at 256 µM.

Regarding `CCOC(=O)c1c(-c2ccc(OC)cc2)oc2ccc(OCCCCN3C(=O)C(=O)c4ccccc43)cc12`, in series [1], the CC50 at 72 h is 256 µM.

Regarding `CO[C@H]1/C=C/O[C@@]2(C)Oc3c(C)c(O)c4c(O)c(c(/C=N/N5CCN(C)CC5)c(O)c4c3C2=O)NC(=O)/C(C)=C\C=C\[C@H](C)[C@H](O)[C@@H](C)[C@@H](O)[C@@H](C)[C@H](OC(C)=O)[C@@H]1C` [RIFAMPIN], in series [1], the CC50 at 72 h is 512 µM.

With `CCOC(=O)c1c(-c2ccc(F)cc2)oc2ccc(OCCN3C(=O)C(=O)c4cc(OC)ccc43)cc12`, the CC50 at 72 h in series [1] amounted to 512 µM.

For orientation: CC50 means the concentration giving 50% cytotoxicity. Broadly, the Cmax is the peak of the concentration-time curve. The term Tmax denotes the time at which the peak concentration occurs. One may read the AUC(0-inf) as the area under the concentration-time curve extrapolated to infinity.
